In patent publication US7652044B2, “P-38 inhibitors” (Novartis A.G., priority 2003, dated 2010):

Target: T1, p38α kinase (Homo sapiens, UniProt Q16539)
T1 construct: purchased Upstate
Assay: p38α assay (enzyme inhibition)
Format: biochemical
Procedure: Compound inhibitory activity was measured in a radioactive enzyme assay. The buffer composition was adopted from Lisnock et al (Biochemistry, 1998, vol. 37, pp 16573-16581). Peptide substrate was selected from Chen et al (Biochemistry, 2000, vol. 39, 2079-2087). The concentrations of p38α, [γ-^33P-ATP] and peptide were equal 1 nM, 85 uM and 250 uM, respectively. Incorporation of ^33P into peptide was measured using absorption on filtermats with subsequent wash with 100 mM phosphoric acid followed by ethanol.
cDNAs of human p38α and β were cloned by PCR. The α and β cDNAs were subcloned into DEST2 plasmid (Gateway, InVitrogen). His6-p38 fusion protein was expressed in E. coli and purified from bacterial lysates by affinity chromatography using Ni^+2-NTA-agarose. His6-p38 protein was activated by incubating with constitutively active MKK6. Active p38 was separated from MKK6 by affinity chromatography. Constitutively active MKK6 was generated in a manner similar to Raingeaud et al. (Mol. Cell. Biol., 1247-1255 (1996)).
The p38α assay employed is based on measurement of ADP released in the reaction of interest through NADH oxidation obtained by coupling with pyruvate kinase and lactate dehydrogenase reactions. The assays were performed in 384-well UV-plates. The final volume was 25 uL prepared from the addition of 2.5 uL compound dissolved in 10% DMSO, 17.5 uL of assay buffer and 5 uL of ATP. Assay buffer contains the following reagents to give final concentration in the assay: 25 mM HEPES, 20 mM 2-glycerophosphate, pH 7.6, 10 mM MgCl2, 0.1 mM sodium orthovanadate, 0.5 mM phosphoenolpyruvate, 0.12 mM NADH, 3.1 mg/ml LDH, 6.67 mg/ml pyruvate kinase, 0.25 mM peptide substrate, 2 mM DTT, 0.005% Tween 80 and 20 nM p38α kinase from Upstate. Test compounds are preincubated with p38α kinase for 60 min and the reaction started by addition of ATP to 0.15 mM final concentration. Reaction rates were measured at 340 nm using SpectraMax plate-reading spectrophotometer for 10 min at 37° C. Inhibition data were analyzed by non-linear least-squares regression using SigmaPlot.

T1 sequence (Q16539 whole entry): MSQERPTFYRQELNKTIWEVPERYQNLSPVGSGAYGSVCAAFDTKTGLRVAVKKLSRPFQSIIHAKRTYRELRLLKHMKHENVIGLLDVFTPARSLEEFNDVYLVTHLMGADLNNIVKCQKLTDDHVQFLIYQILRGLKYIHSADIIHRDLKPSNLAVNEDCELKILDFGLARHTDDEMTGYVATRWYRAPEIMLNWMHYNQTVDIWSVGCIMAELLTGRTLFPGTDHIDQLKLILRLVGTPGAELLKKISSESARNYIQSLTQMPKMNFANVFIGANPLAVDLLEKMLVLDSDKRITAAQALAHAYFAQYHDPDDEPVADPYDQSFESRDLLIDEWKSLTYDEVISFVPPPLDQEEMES

`Cc1ccc(C(=O)NC2CC2)cc1Nc1nc(-c2cccc(CN)c2)c(C(=O)NCc2ccccc2)s1` [Compound 28-24, 4-(3-Aminomethyl-phenyl)-2-(5-cyclo-propylcarbamoyl-2-methylphenylamino) thiazole-5-carboxylic acid benzylamide] showed an IC50 of under 50 nM.
For `Cc1ccc(C(=O)NC2CC2)cc1Nc1nc(-c2ccc3[nH]ccc3c2)c(C(=O)NCc2ccccc2)s1` [Compound 28-40, 2-(5-Cyclopropylcar-bamoyl-2-methyl-phenylamino)-4-(1H-indol-5-yl)-thiazole-5-carboxylic acid benzylamide], the IC50 was over 100 nM.
`CONC(=O)c1ccc(C)c(Nc2noc(-c3ccccc3)n2)c1` [Compound 2, N-methoxy-4-methyl-3-(5-phenyl-[1,2,4]oxadiazol-3-ylamino)-benzamide] gave an IC50 of under 50 nM.
`Cc1ccc(C(=O)NC2CC2)cc1Nc1nc(-c2ccccc2)cs1` [Compound 3, N-Cyclopropyl-4-methyl-3-(4-phenyl-thiazol-2-ylamino)-benzamide] gave an IC50 of over 100 nM.
In the case of `Cc1ccc(C(=O)NC2CC2)cc1Nc1ncc(C(=O)NCc2ccccc2)s1` [Compound 26, 2-(5-Cyclopropylcarbamoyl-2-methyl-phenylamino)-thiazole-5-carboxylic acid benzylamide], the IC50 is reported as under 50 nM.
For `Cc1cccc(-c2nc(Nc3cc(C(=O)NC4CC4)ccc3C)sc2C(=O)NCc2ccccc2)c1` [Compound 28-6, 2-(5-Cyclopropylcar-bamoyl-2-methyl-phenylamino)-4-m-tolyl-thiazole-5-carboxylic acid benzylamide], the IC50 was 50 to 100 nM.
`Cc1ccc(C(=O)NC2CC2)cc1Nc1nc(-c2cccc(C#N)c2)c(C(=O)NCc2ccccc2)s1` [Compound 28-9, 4-(3-Cyano-phenyl)-2-(5-cyclopropyl-carbamoyl-2-methyl-phenylamino)thia-zole-5-carboxylic acid benzylamide] gave an IC50 of 50 to 100 nM.
`CONC(=O)c1ccc(C)c(Nc2nnc(-c3ccccc3)[nH]2)c1` [Compound 1, N-methoxy-4-methyl-3-(5-phenyl-4H-[1,2,4]triazol-3-ylamino)-benzamide] showed an IC50 of under 50 nM.
